The record followed here is patent publication US6946470B2, “Method of treating psychosis in a patient” (Medical and Pharmaceutical Industry Technology and …, priority 2002, dated 2005).

The target of test [1] is T1, human dopamine D2L receptors (Homo sapiens, UniProt P14416).
T1 construct: expressed in transfected cells
Description: Dopamine D2L receptor binding assay ([3H]Spiperone). The conditions noted are these: 30 nM, CHO cell membranes. Here is the method:
Dopamine D2L Receptor Binding Assay
This assay measures binding of [^3H]Spiperone to human dopamine D2L receptors. CHO cells stably transfected with a plasmid encoding the human dopamine D2L receptor were used to prepare membranes in modified Tris-HCl pH 7.4 buffer. A 20 μg aliquot of membrane, in the presence or absence of a test compound, was incubated with 0.16 nM [^3H]Spiperone for 120 minutes at 25° C. Non-specific binding was estimated in the presence of 10 μM hapoperidol. Membranes were filtered and washed three times and the filters were counted to determine [^3H]Spiperone specifically bound. [References: Grandy D K, Marchionni M A, Makam H, Stofko R E, Alfano M, Frothingham L, Fischer J B, Burker-Howie K J, Bunzow J R, Server A C. Proc. Natl. Acad. Sci. (USA) 86: 9762-9766, 1989; Bunzow J R, Van Tol H H, Grandy D K, Albert P, Salon J, Christie M, Machida C A, Neve K A, Civelli O. Nature 336: 783-787, 1988; Hayes G, Biden T J, Selbie L A, Shine J. Mol. Endocrin. 6: 920-926, 1992]

The target of test [2] is T2, serotonin 5-HT2 receptors (Rattus norvegicus, UniProt P14842).
T2 construct: from tissue; host or cells: rat whole brain (except cerebellum) membranes
T2 sequence (P14842 whole entry): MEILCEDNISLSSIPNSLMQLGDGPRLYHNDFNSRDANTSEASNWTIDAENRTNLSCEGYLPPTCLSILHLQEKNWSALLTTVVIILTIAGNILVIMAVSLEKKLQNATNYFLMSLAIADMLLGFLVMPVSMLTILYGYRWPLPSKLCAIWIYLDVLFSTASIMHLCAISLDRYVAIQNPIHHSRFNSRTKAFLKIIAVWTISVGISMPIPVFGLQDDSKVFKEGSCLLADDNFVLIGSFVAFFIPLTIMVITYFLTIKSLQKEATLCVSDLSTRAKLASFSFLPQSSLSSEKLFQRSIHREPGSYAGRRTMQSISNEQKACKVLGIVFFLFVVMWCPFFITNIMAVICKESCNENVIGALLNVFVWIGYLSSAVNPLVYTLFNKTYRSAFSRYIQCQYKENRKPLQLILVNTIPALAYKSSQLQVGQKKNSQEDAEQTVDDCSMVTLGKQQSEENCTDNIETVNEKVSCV
Description: Serotonin 5-HT2 receptor binding assay ([3H]Ketanserin). The conditions noted are these: 30 nM, rat whole brain membranes. Here is the method: Serotonin 5-HT2 Receptor Binding Assay
This assay measures binding of [^3H]Ketanserin to serotonin 5-HT2 receptors. Whole brain (except cerebellum) membranes of male Wistar derived rats weighing 175±25 g were prepared in Tris-HCl pH 7.7 buffer. A 10 mg aliquot of membrane was incubated with 0.5 nM [^3H]Ketanserin for 40 minutes at 25° C. Non-specific binding was estimated in the presence of 1 μM Ketanserin. Membranes were filtered and washed three times and the filters were counted to determine [^3H]Ketanserin specifically bound. [Reference: Leysen J E, Niemegeers C J, Van Nauten J M, Laduron D M. Mol. Pharmacol. 21: 301-314, 1982]

The subject of test [3] is apomorphine-induced climbing behavior in mice. As to the kind of experiment: Effects on apomorphine-induced climbing behavior. Format: in vivo. The conditions noted are these: for Inhibition % of apomorphine-induced climbing behavior: apomorphine 1 mg/kg SC 60 min after dosing; for Agonist activity (score): group score 0-6, 30 to 60 minutes post-dosing, 3 mice. Here is the method:
Climbing behavior was scored 0-2 for each animal from 30 to 60-minutes post-dosing: all four paws on floor=0, both forefeet holding the wall=1, all four paws on wall=2. Consequently, maximum possible group score was 2×3 mice=6. A score of 3 or more (≧3) during this 30 minute observation period denotes dopamine-agonist activity. Mice in which no significant dopamine agonist activity occurred were then used to determine antagonistic activity. […] [Reference: Psychopharmacology 50: 1-6, 1976] Percentage inhibition of test substance on apomorphine-induced climbing behavior is calculated as follows: [formula]

T1 sequence (P14416 whole entry): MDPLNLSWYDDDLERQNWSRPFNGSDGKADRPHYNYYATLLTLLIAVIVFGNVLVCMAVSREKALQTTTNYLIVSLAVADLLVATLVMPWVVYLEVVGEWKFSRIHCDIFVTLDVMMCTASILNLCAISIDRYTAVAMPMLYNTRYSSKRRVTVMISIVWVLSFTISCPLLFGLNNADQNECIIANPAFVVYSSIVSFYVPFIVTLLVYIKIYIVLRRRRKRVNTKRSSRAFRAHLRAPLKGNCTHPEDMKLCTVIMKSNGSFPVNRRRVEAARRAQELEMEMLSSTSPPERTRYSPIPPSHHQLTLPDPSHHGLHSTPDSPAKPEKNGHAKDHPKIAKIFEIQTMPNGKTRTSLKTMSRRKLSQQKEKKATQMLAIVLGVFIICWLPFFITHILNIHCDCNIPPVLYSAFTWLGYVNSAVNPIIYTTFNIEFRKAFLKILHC

The inhibition is the drop in the measured response relative to a control, in per cent. Read a low inhibition as little suppression. As for `O=C1Nc2ccccc2C2=NC(CN3CCN(Cc4ccccc4)CC3)CN12` (stereo not shown) [PDC-121, 2-[4-benzyl-1-piperazinyl]methyl-2,3-dihydroimidazo[1,2-c]quinazolin-5(6H)-one], the inhibition at 0.03 µM in test [1] turned out to be 18%; in test [2] it was 21%.

For `O=C1Nc2ccccc2C2=NC(CC3CCC4(CCCCC4)NC3)CN12` (stereo not shown) [PDC-122, 3-{2,3-dihydroimidazo[1,2-c]quinazolin-5(6H)-one-2-yl}methyl-azaspiro-[5,5]undecane], the inhibition at 0.03 µM in test [1] came to 13%; in test [2] it was 2%.

Take `O=C1Nc2ccccc2C2=NC(CN3CCN(Cc4ccc5c(c4)OCO5)CC3)CN12` (stereo not shown) [PDC-123, 2-[4-piperonyl-1-piperazinyl]methyl-2,3-dihydroimidazo[1,2-c]-quinazolin-5(6H)-one]: the values for the inhibition at 0.03 µM in test [1] and in test [2] were 11% and 4%, respectively.

In test [1], `O=C1Nc2ccccc2C2=NC(CN3CCC(Cc4ccccc4)CC3)CN12` (stereo not shown) [PDC-124, 2-[4-Benzyl-1-piperidinyl]methyl-2,3-dihydroimidazo[1,2-c]quinazolin-5(6H)-one] gave an inhibition at 0.03 µM of 14%. Testing at 0.03 µM in test [2] gave an inhibition of 62%. In addition, in test [3] (PO 30 mg/kg), the “Inhibition % of apomorphine-induced climbing behavior” value came to 50% and the “Agonist activity (score)” value came out at 0.

As for `O=C1Nc2ccccc2C2=NC(CNC3CCN(Cc4ccccc4)CC3)CN12` (stereo not shown) [PDC-126, 2-[1-benzylpiperidin-4-yl]aminomethyl-2,3-dihydroimidazo[1,2-c]-quinazolin-5(6H)-one], the inhibition at 0.03 µM was 29% in test [1] and 11% in test [2].

On to `O=C1Nc2ccccc2C2=NC(CN3CCN(Cc4ccc(F)cc4)CC3)CN12` (stereo not shown) [PDC-127, 2-[4-(4-fluorobenzyl)-1-piperazinyl]methyl-2,3-dihydroimidazo[1,2-c]quinazolin-5(6H)-one], for which the inhibition at 0.03 µM in test [1] came to 11%; in test [2], 20%.

Take `O=C(c1ccc(F)cc1)C1CCN(CC2CN3C(=O)Nc4ccccc4C3=N2)CC1` (stereo not shown) [PDC-130, 2-[1-(4-p-fluorobenzoyl)piperidinyl]methyl-2,3-dihydroimidazo[1,2-c]-quinazolin-5(6H)-one]: in test [1], the “Inhibition % D2L” value is reported as 16%. The “Inhibition % 5-HT2” value in test [2] came to 88%. The “Inhibition % of apomorphine-induced climbing behavior” value in test [3] (PO 1 mg/kg) worked out at 0%; in test [3] (PO 3 mg/kg) it was 60%; in test [3] (PO 10 mg/kg), 100%; in test [3] (PO 30 mg/kg) it was 100%. Moreover, the “Agonist activity (score)” value in test [3] (PO 1 mg/kg), in test [3] (PO 3 mg/kg), in test [3] (PO 10 mg/kg) and in test [3] (PO 30 mg/kg) was 0 in each case.

As for `O=C1Nc2ccccc2C2=NC(CN3CCN(C(c4ccccc4)c4ccc(Cl)cc4)CC3)CN12` (stereo not shown) [PDC-131, 2-[1-(4-chlorobenzhydryl)piperazinyl]methyl-2,3-dihydroimidazo[1,2-c]-quinazolin-5(6H)-one], the “Inhibition % D2L” value in test [1] stood at 10%. In addition, the “Inhibition % 5-HT2” value in test [2] came out at 47%.

Take `COc1ccc(N2CCN(CC3CN4C(=O)Nc5ccccc5C4=N3)CC2)cc1` (stereo not shown) [PDC-132, 2-[1-(4-methoxyphenyl)piperazinyl]methyl-2,3-dihydroimidazo[1,2-c]-quinazolin-5(6H)-one]: in test [1], the “Inhibition % D2L” value was determined as 15%. The “Inhibition % 5-HT2” value in test [2] came to 5%.
